18 compounds from PubChem BioAssay AID248 (DTP/NCI, 2004) can be followed below.

Where “and” joins values, the source holds several entries; their conditions need not be identical. Equal values may be shown once. Toxic doses and inconclusive results are not listed.

In this assay the test system is L1210 leukemia ip in BDF1 mice, survival T/C. In words: NCI In Vivo Anticancer Drug Screen. Data for tumor model L1210 Leukemia (intraperitoneal) in B6D2F1 (BDF1) mice. The settings on record: endpoint: mean survival time, higher = longer survival. The method in brief: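 Ratio derived from survival: compound-dosed mice over vehicle-dosed mice, all bearing a transplantable tumor.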

Setting [1] is: dose: 100.0 mg/kg/injection, schedule: Q01DX009 (ip), vehicle: Klucel (hydroxypropylcellulose) (HPC).
Setting [2] is: dose: 200.0 mg/kg/injection, schedule: Q01DX009 (ip), vehicle: Klucel (hydroxypropylcellulose) (HPC).
The mark [3] stands for this setting: dose: 400.0 mg/kg/injection, schedule: Q01DX009 (ip), vehicle: Klucel (hydroxypropylcellulose) (HPC).
[4] abbreviates: dose: 100.0 mg/kg/injection, schedule: Q04DX003 (ip), vehicle: saline with Tween-80.
Where [5] appears, read: dose: 200.0 mg/kg/injection, schedule: Q04DX003 (ip), vehicle: saline with Tween-80.
The mark [6] stands for this setting: dose: 400.0 mg/kg/injection, schedule: Q04DX003 (ip), vehicle: saline with Tween-80.
The mark [7] stands for this setting: dose: 100.0 mg/kg/injection, schedule: Q01DX001 (ip), vehicle: saline with Tween-80.
Where [8] appears, read: dose: 100.0 mg/kg/injection, schedule: Q01DX009 (ip), vehicle: saline with Tween-80.
Where [9] appears, read: dose: 200.0 mg/kg/injection, schedule: Q01DX009 (ip), vehicle: saline with Tween-80.
[10] abbreviates: dose: 400.0 mg/kg/injection, schedule: Q01DX009 (ip), vehicle: saline with Tween-80.

For the compound `C1CCC(=C(C2CCCC2)C2CCCC2)C1`, the T/C runs as follows: (dose: 75.0 mg/kg/injection, schedule: Q04DX002 (ip), vehicle: saline with Tween-80) 105 % of control; (dose: 150.0 mg/kg/injection, schedule: Q04DX002 (ip), vehicle: saline with Tween-80) 99 % of control; (dose: 300.0 mg/kg/injection, schedule: Q04DX002 (ip), vehicle: saline with Tween-80) 99 % of control.

Take `Oc1cccc[c]1[Hg][Cl]`: the T/C is 98 % of control (dose: 1.0 mg/kg/injection, schedule: Q01DX009 (ip), vehicle: Klucel (hydroxypropylcellulose) (HPC)); 98 % of control (dose: 1.0 mg/kg/injection, schedule: Q04DX003 (ip), vehicle: saline); 89 % of control (dose: 3.0 mg/kg/injection, schedule: Q01DX009 (ip), vehicle: Klucel (hydroxypropylcellulose) (HPC)); 94 % of control (dose: 3.0 mg/kg/injection, schedule: Q04DX003 (ip), vehicle: saline); 94 % of control and 91 % of control (dose: 6.0 mg/kg/injection, schedule: Q01DX009 (ip), vehicle: Klucel (hydroxypropylcellulose) (HPC)).

On to `O=C(O)c1ccccc1C(=O)c1ccc(Cl)cc1`, for which the T/C is 100 % of control under setting [1], 86 % of control under setting [2] and 100 % of control under setting [3].

On to `CC1(C)C2CCC1(CS(=O)(=O)O)C(=O)C2Br.[Ag]` (stereo not drawn), for which the T/C by setting is: (dose: 1.56 mg/kg/injection, schedule: Q01DX009 (ip), vehicle: saline) 101 % of control; (dose: 3.12 mg/kg/injection, schedule: Q01DX009 (ip), vehicle: saline) 108 % of control; (dose: 6.25 mg/kg/injection, schedule: Q01DX009 (ip), vehicle: saline) 90 % of control; (dose: 12.5 mg/kg/injection, schedule: Q01DX009 (ip), vehicle: saline with Tween-80) 93 % of control.

With `CCCC1(CN2c3ccccc3Sc3ccc(Cl)cc32)CCN(CC)C1` (stereo not drawn), the T/C (dose: 100.0 mg/kg/injection, schedule: Q04DX003 (ip), vehicle: saline) is 90 % of control.

Consider `O=C(Nc1ccc(NC2=NCCN2)cc1)c1cccc(C(=O)Nc2ccc(NC3=NCCN3)cc2)c1`, for which the T/C (dose: 3.75 mg/kg/injection, schedule: Q01DX Z (ip), vehicle: methylcellulose (MC)) was 100 % of control; the T/C (dose: 7.5 mg/kg/injection, schedule: Q01DX Z (ip), vehicle: methylcellulose (MC)) was 104 % of control; the T/C (dose: 15.0 mg/kg/injection, schedule: Q01DX Z (ip), vehicle: methylcellulose (MC)) is 116 % of control; the T/C (dose: 30.0 mg/kg/injection, schedule: Q01DX Z (ip), vehicle: methylcellulose (MC)) was 161 % of control.

Consider `Cc1ccc(C)c(NS(=O)(=O)c2ccc(Cl)c([N+](=O)[O-])c2)c1`, for which the T/C is 110 % of control under setting [1], 105 % of control under setting [2] and 107 % of control under setting [3].

With `O=C(c1ccccc1)c1ccc(-c2ccccc2)cc1`, the T/C was 97 % of control (dose: 87.5 mg/kg/injection, schedule: Q04DX003 (ip), vehicle: Klucel (hydroxypropylcellulose) (HPC)); 95 % of control (dose: 175.0 mg/kg/injection, schedule: Q04DX003 (ip), vehicle: Klucel (hydroxypropylcellulose) (HPC)); 97 % of control (dose: 350.0 mg/kg/injection, schedule: Q04DX003 (ip), vehicle: Klucel (hydroxypropylcellulose) (HPC)).

With `CC(=O)N(C)CC(O)C(O)C(O)C(O)CO` (stereo not drawn), the T/C is 100 % of control under setting [4], 94 % of control under setting [5] and 96 % of control under setting [6].

As to `CCCCCCCCCCCCO`, the T/C is, setting by setting: under setting [1], 88 % of control; under setting [2], 96 % of control.

Consider `O=S(=O)(NC(CCl)=NCc1ccccc1)c1ccccc1`, for which the T/C reads like this: (dose: 100.0 mg/kg/injection, schedule: Q04DX002 (ip), vehicle: Klucel (hydroxypropylcellulose) (HPC)) 96 % of control; (dose: 200.0 mg/kg/injection, schedule: Q04DX002 (ip), vehicle: Klucel (hydroxypropylcellulose) (HPC)) 100 % of control; (dose: 400.0 mg/kg/injection, schedule: Q04DX002 (ip), vehicle: Klucel (hydroxypropylcellulose) (HPC)) 86 % of control.

Turning to `CSc1ncnc2c1cnn2C1OC(CCC#N)C(O)C1O` (stereo not drawn), the T/C (dose: 100.0 mg/kg/injection, schedule: Q01DX001 (ip), vehicle: saline) is 97 % of control and the T/C (dose: 200.0 mg/kg/injection, schedule: Q01DX001 (ip), vehicle: saline) is 98 % of control.

As to `COc1c(C)c(C)c(OC)c(Br)c1C`, the T/C is, setting by setting: under setting [7], 98 % of control; under setting [8], 95 % of control; (dose: 200.0 mg/kg/injection, schedule: Q01DX001 (ip), vehicle: saline with Tween-80) 102 % of control; under setting [9], 98 % of control; (dose: 400.0 mg/kg/injection, schedule: Q01DX001 (ip), vehicle: saline with Tween-80) 98 % of control; under setting [10], 106 % of control.

With `Cc1c2oc3c(C)ccc(C(=O)NC4C(=O)NC(C(C)C)C(=O)N5CCCC5C(=O)N(C)CC(=O)N(C)C(C(C)C)C(=O)OC4C)c3nc-2c(C(=O)NC2C(=O)NC(C(C)C)C(=O)N3CCCC3C(=O)N(C)CC(=O)N(C)C(C(C)C)C(=O)OC2C)c(NCCCO)c1=O` (stereo not drawn), the T/C by setting is: (dose: 0.07 mg/kg/injection, schedule: Q04DX003 (ip), vehicle: saline + alcohol) 95 % of control; (dose: 0.1 mg/kg/injection, schedule: Q01DX009 (ip), vehicle: saline + alcohol) 116 % of control; (dose: 0.15 mg/kg/injection, schedule: Q04DX003 (ip), vehicle: saline + alcohol) 107 % of control; (dose: 0.2 mg/kg/injection, schedule: Q01DX001 (ip), vehicle: saline + alcohol) 106 % of control; (dose: 0.3 mg/kg/injection, schedule: Q04DX003 (ip), vehicle: saline + alcohol) 108 % of control; (dose: 0.4 mg/kg/injection, schedule: Q01DX001 (ip), vehicle: saline + alcohol) 107 % of control. For the same compound, the T/C was 114 % of control (dose: 0.6 mg/kg/injection, schedule: Q04DX003 (ip), vehicle: saline + alcohol); 111 % of control (dose: 0.62 mg/kg/injection, schedule: Q04DX003 (ip), vehicle: saline + alcohol); 103 % of control (dose: 0.8 mg/kg/injection, schedule: Q01DX001 (ip), vehicle: saline + alcohol); 112 % of control (dose: 1.0 mg/kg/injection, schedule: Q01DX001 (ip), vehicle: saline + alcohol); 121 % of control (dose: 1.25 mg/kg/injection, schedule: Q04DX003 (ip), vehicle: saline + alcohol); 95 % of control (dose: 1.6 mg/kg/injection, schedule: Q01DX001 (ip), vehicle: saline + alcohol). The T/C is 121 % of control (dose: 2.0 mg/kg/injection, schedule: Q01DX001 (ip), vehicle: saline + alcohol); 104 % of control (dose: 3.2 mg/kg/injection, schedule: Q01DX001 (ip), vehicle: saline + alcohol); 121 % of control (dose: 4.0 mg/kg/injection, schedule: Q01DX001 (ip), vehicle: saline + alcohol); 160 % of control (dose: 5.0 mg/kg/injection, schedule: Q04DX003 (ip), vehicle: saline + alcohol); 101 % of control and 116 % of control (dose: 12.5 micrograms/kg/injection, schedule: Q01DX009 (ip), vehicle: saline + alcohol); 98 % of control (dose: 25.0 micrograms/kg/injection, schedule: Q01DX009 (ip), vehicle: saline + alcohol). Besides, the T/C (dose: 50.0 micrograms/kg/injection, schedule: Q01DX009 (ip), vehicle: saline + alcohol) was 106 % of control.

Consider `COC1COC(OC)C(OS(C)(=O)=O)C1OC` (stereo not drawn), for which the T/C is 106 % of control (dose: 100.0 mg/kg/injection, schedule: Q01DX001 (ip), vehicle: carboxymethylcellulose (CMC)); 98 % of control (dose: 200.0 mg/kg/injection, schedule: Q01DX001 (ip), vehicle: carboxymethylcellulose (CMC)); 101 % of control (dose: 400.0 mg/kg/injection, schedule: Q01DX001 (ip), vehicle: carboxymethylcellulose (CMC)).

For the compound `CCNCC(=O)Nc1ccccc1C(=O)OCC`, the T/C by setting is: (dose: 222.0 mg/kg/injection, schedule: Q01DX Z (ip), vehicle: saline) 113 % of control; (dose: 333.0 mg/kg/injection, schedule: Q01DX Z (ip), vehicle: saline) 102 % of control.

For `Cc1cc(Br)c2ccccc2c1NS(=O)(=O)c1ccccc1`, the T/C by setting is: under setting [8], 100 % of control; under setting [4], 109 % of control; under setting [9], 90 % of control; under setting [5], 100 % of control; under setting [10], 92 % of control; under setting [6], 105 % of control.

On to `OC1c2ccccc2CC1N1CCCCC1` (stereo not drawn), for which the T/C under setting [7] is 97 % of control.
